From patent publication US20250009745A1, “CDK INHIBITOR” (SHANGHAI QILU PHARMACEUTICAL RESEARCH AND DEVELOPMENT …, priority 2021, published 2025) come the findings set out here.

Bounds are passed on as bounds.

Holding throughout (experiment): CDK enzymology experiment in vitro, capillary mobility shift assay (MSA)
Holding throughout (type): biochemical

For one test, the target named is T1, CDK6 (Homo sapiens, UniProt Q00534).
T1 construct: purchased Carna Company
The note with it: read-out: CDK6 (nM) inhibitory IC50. How it is done:
(§1) CDK1/CDK2/CDK4/CDK6/CDK7/CDK9 were purchased from Carna Company; Carliper substrate CTD3/substrate 18/substrate 8 were purchased from Gil Biochemical Company; Dinaciclib/Palbociclib were purchased from Selleckchem Company; DMSO was purchased from Sigma Company; 384-well plates were purchased from Corning Company.
• (1) Preparation of 1×Kinase buffer. • (2) Preparation of compound concentration gradient: Test concentration of the test compound was started at 1 μM, 10 μM or 30 μM, 3-fold dilution, 10 concentrations, detected in duplicate. […] Liquid handler Echo 550 was used to transfer 250 nL of 100-fold final concentration of the compound to the target plate 384-well plate. […] The 384-well plate was centrifuged at 1000 rpm for 30 seconds, and shaken to mix uniformly. • (10) The conversion rate was read with Caliper EZ Reader.
(§2) Where, conversion %_sample is the readings of conversion rate of the sample; conversion %_min: the average value of negative control wells, representing the readings of conversion rate of wells without enzyme activity; conversion %_max: the average value of positive control wells, representing the readings of conversion rate of wells without compound inhibition.
(§3) Taking the log value of the concentration as the X-axis, and the percentage inhibition rate as the Y-axis, the dose-effect curve was fitted using the log(inhibitor) vs. response—Variable slope of the analysis software GraphPad Prism 5 so as to obtain the IC50 value of each compound on the enzyme activity.
(§4) Y=Bottom+(Top−Bottom)/(1+10^((Log IC50−X)*HillSlope)). Calculation formula: […]

The target in a further test is T2, CDK2 (Homo sapiens, UniProt P24941).
T2 construct: purchased Carna Company
The note with it: read-out: CDK2 (nM) inhibitory IC50. How it is done:
as §1
(§5) • (1) Preparation of 1×Kinase buffer. • (2) Preparation of compound concentration gradient: Test concentration of the test compound was started at 1 μM, 10 μM or 30 μM, 3-fold dilution, 10 concentrations, detected in duplicate. The test compound was diluted to a 100-fold final concentration with 100% DMSO solution in a 384 source plate. Liquid handler Echo 550 was used to transfer 250 nL of 100-fold final concentration of the compound to the target plate 384-well plate. […] The 384-well plate was centrifuged at 1000 rpm for 30 seconds, and shaken to mix uniformly. • (10) The conversion rate was read with Caliper EZ Reader.
as §2, §3, §4

The target in the next test is T3, CDK4 (Homo sapiens, UniProt P11802).
T3 construct: purchased Carna Company
T3 sequence (P11802 whole entry): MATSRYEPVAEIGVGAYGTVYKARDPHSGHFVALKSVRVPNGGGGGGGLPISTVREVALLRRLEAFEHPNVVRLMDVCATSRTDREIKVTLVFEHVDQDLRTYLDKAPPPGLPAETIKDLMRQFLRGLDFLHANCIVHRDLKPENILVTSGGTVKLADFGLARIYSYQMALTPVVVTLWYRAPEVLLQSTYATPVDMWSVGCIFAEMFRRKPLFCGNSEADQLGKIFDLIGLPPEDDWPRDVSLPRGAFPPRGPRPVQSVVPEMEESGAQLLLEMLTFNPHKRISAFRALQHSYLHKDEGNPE
T3 sequence (P30281 whole entry partner): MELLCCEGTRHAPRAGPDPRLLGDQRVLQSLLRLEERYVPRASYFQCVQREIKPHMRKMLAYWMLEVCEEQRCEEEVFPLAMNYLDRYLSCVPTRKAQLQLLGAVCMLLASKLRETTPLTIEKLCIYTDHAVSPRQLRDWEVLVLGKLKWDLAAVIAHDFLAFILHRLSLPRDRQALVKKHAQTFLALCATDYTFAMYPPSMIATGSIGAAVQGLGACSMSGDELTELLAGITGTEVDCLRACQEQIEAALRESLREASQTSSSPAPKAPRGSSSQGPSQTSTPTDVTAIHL
The note with it: read-out: CDK4 (nM) inhibitory IC50. How it is done: as §1, §5, §2, §3, §4

T1 sequence (Q00534 whole entry): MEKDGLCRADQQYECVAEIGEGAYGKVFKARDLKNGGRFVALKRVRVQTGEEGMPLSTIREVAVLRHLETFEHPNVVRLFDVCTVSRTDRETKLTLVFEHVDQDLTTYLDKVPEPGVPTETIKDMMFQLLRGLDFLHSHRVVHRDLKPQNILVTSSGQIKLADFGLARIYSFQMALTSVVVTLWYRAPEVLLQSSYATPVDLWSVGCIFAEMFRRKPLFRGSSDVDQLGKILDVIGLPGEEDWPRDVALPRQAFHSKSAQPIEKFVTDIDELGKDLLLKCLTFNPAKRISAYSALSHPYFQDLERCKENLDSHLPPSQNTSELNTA
T1 sequence (P30281 whole entry partner): as the sequence (P30281 whole entry partner) above

One may read the IC50 as the point on the concentration scale where inhibition reaches its midpoint. For `O=S(=O)(c1ccc(N2C3CNCC2C3)nc1)N1CCC(Nc2ncc(C(F)(F)F)c(O[C@H]3CCOC3)n2)CC1` [Compound 189], the values for the half-inhibitory concentration (IC50) on CDK6, at CDK2 and at CDK4 were 0.5 to 2.5 nM, less than 0.5 nM and 0.5 to 2.5 nM, respectively.

For `C[C@H]1CN(c2ccc(S(=O)(=O)N3CCC(Nc4ncc(C(F)(F)F)c(O[C@H]5CCOC5)n4)CC3)cn2)CCN1` [Compound 188], the IC50 on CDK6 is 0.5 to 2.5 nM; at CDK2, less than 0.5 nM; at CDK4, 0.5 to 2.5 nM.

Take `O=S(=O)(c1ccc(C2CCNCC2)cc1)N1CCC(Nc2ncc(C(F)(F)F)c(NC3CCCC3(F)F)n2)CC1` (stereo not drawn) [Compound 137]: the concentration for half-maximal inhibition (IC50) at CDK6, at CDK2 and on CDK4 was 0.5 to 2.5 nM throughout.

With `O=S(=O)(c1ccc(C2CCCNC2)c(F)c1)N1CCC(Nc2ncc(C(F)(F)F)c(O[C@H]3CCOC3)n2)CC1` (stereo partly drawn) [Compound 193], the IC50 at CDK6 is 0.5 to 2.5 nM; at CDK2, less than 0.5 nM; at CDK4, 0.5 to 2.5 nM.

Regarding `CN1CC=C(c2ccc(S(=O)(=O)N3CCC(Nc4ncc(C(F)(F)F)c(O[C@H]5CCOC5)n4)CC3)cc2)CC1` [Compound 203], the IC50 at CDK6 is 0.5 to 2.5 nM; on CDK2, less than 0.5 nM; at CDK4, less than 0.5 nM.

Regarding `O=S(=O)(c1ccc(N2C3CCC2CNC3)cc1)N1CCC(Nc2ncc(C(F)(F)F)c(O[C@H]3CCOC3)n2)CC1` [Compound 195], the IC50 on CDK6 is 0.5 to 2.5 nM; on CDK2, less than 0.5 nM; at CDK4, 0.5 to 2.5 nM.

As for `O=S(=O)(c1ccc(C2CNC2)c(F)c1)N1CCC(Nc2ncc(C(F)(F)F)c(O[C@H]3CCOC3)n2)CC1` [Compound 160], the IC50 on CDK6 was 0.5 to 2.5 nM; on CDK2, 0.5 to 2.5 nM; at CDK4, 2.5 to 10 nM.

Regarding `O=S(=O)(c1ccc(N2CC3CC(C2)N3)cc1)N1CCC(Nc2ncc(C(F)(F)F)c(O[C@H]3CCOC3)n2)CC1` [Compound 179], the half-inhibitory concentration (IC50) was 0.5 to 2.5 nM at CDK6, less than 0.5 nM at CDK2 and 0.5 to 2.5 nM on CDK4.

As to `C[C@@H]1CN(c2ccc(S(=O)(=O)N3CCC(Nc4ncc(C(F)(F)F)c(O[C@@H]5CCOC5)n4)CC3)cc2)C[C@H](C)N1` [Compound 210], the IC50 fell in the range of 2.5 to 10 nM at CDK6, 0.5 to 2.5 nM at CDK2 and 10 to 50 nM on CDK4.

As to `Cc1cc(S(=O)(=O)N2CCC(Nc3ncc(C(F)(F)F)c(O[C@H]4CCOC4)n3)CC2)ccc1N1CCNCC1` [Compound 171], the figures for the concentration for half-maximal inhibition (IC50) at CDK6, on CDK2 and at CDK4 were 0.5 to 2.5 nM, less than 0.5 nM and 0.5 to 2.5 nM, respectively.

In the case of `Cc1cc(S(=O)(=O)N2CCC(Nc3ncc(C(F)(F)F)c(O[C@H]4CCOC4)n3)CC2)ccc1C1CCNCC1` [Compound 155], the half-maximal inhibitory concentration (IC50) is 0.5 to 2.5 nM on CDK6, less than 0.5 nM at CDK2 and 0.5 to 2.5 nM at CDK4.

As to `O=S(=O)(c1ccc(N2CC3CC(C2)N3)nc1)N1CCC(Nc2ncc(C(F)(F)F)c(O[C@H]3CCOC3)n2)CC1` [Compound 180], the values for the IC50 at CDK6, on CDK2 and on CDK4 were 0.5 to 2.5 nM, less than 0.5 nM and 0.5 to 2.5 nM, respectively.

As for `Cc1nnc(-c2ccc(S(=O)(=O)N3CCC(Nc4ncc(C(F)(F)F)c(O[C@H]5CCOC5)n4)CC3)cc2)o1` [Compound 161], the concentration for half-maximal inhibition (IC50) was 0.5 to 2.5 nM at CDK6, less than 0.5 nM at CDK2 and 0.5 to 2.5 nM on CDK4.

In the case of `N#Cc1cnc(NC2CCN(S(=O)(=O)c3ccc(C4=CCNCC4)cc3)CC2)nc1N[C@H]1CCOC1` [Compound 92], the IC50 on CDK6 lay in the range of 0.5 to 2.5 nM; at CDK2, 2.5 to 10 nM; on CDK4, 2.5 to 10 nM.

As for `CC(C)S(=O)(=O)N1CCC(Nc2ncc(C#N)c(NC3CCCC3)n2)CC1` [Compound 29], the half-inhibitory concentration (IC50) at CDK2 and on CDK4 was 10 to 50 nM throughout.

With `Cn1cc(S(=O)(=O)N2CCC(Nc3ncc(C#N)c(NC4CCCCC4)n3)CC2)cn1` [Compound 79], the IC50 on CDK2 lay within 2.5 to 10 nM; on CDK4, 10 to 50 nM.

Take `Cn1cc(S(=O)(=O)N2CC[C@H](Nc3ncc(C(F)(F)F)c(O[C@H]4CCOC4)n3)[C@H](F)C2)cn1` [Compound 127]: the concentration for half-maximal inhibition (IC50) on CDK2 was less than 0.5 nM; on CDK4 it was 10 to 50 nM.

Consider `Cn1cc(S(=O)(=O)N2CCC(Nc3ncc(C#N)c(O[C@@H]4CCC[C@@H]4O)n3)CC2)cn1` (relative stereo) [Compound 65], for which the values for the half-maximal inhibitory concentration (IC50) on CDK2 and on CDK4 were 2.5 to 10 nM and 10 to 50 nM, respectively.

Consider `Cn1cc(S(=O)(=O)N2CCC(Nc3ncc(C#N)c(NC4CCC(F)(F)C4)n3)CC2)cn1` (stereo not drawn) [Compound 41], for which the IC50 at CDK2 was 2.5 to 10 nM; on CDK4, 10 to 50 nM.

As to `Cn1cc(S(=O)(=O)N2CCC(Nc3ncc(C#N)c(N[C@H]4CCC[C@@H]4O)n3)CC2)cn1` [Compound 46], the concentration for half-maximal inhibition (IC50) at CDK2 lay within 10 to 50 nM; on CDK4, 100 to 1000 nM.

In the case of `Cn1cc(S(=O)(=O)N2CCC(Nc3ncc(C#N)c(N[C@H]4C[C@@H](O)C4)n3)CC2)cn1` [Compound 77], the results for the IC50 on CDK2 and on CDK4 were 2.5 to 10 nM and 10 to 50 nM, respectively.

Turning to `C[C@@H]1COCCN1c1nc(NC2CCN(S(=O)(=O)c3cnn(C)c3)CC2)ncc1C#N` [Compound 38], the concentration for half-maximal inhibition (IC50) at CDK2 was in the range of 10 to 50 nM; on CDK4, 50 to 100 nM.

Consider `Cn1cc(S(=O)(=O)N2CCC(Nc3ncc(C#N)c(N[C@@H]4CC[C@@H](O)C4)n3)CC2)cn1` (single isomer, unassigned) [Compound 53], for which the values for the 50% inhibitory concentration (IC50) on CDK2 and on CDK4 were 2.5 to 10 nM and 10 to 50 nM, respectively.

In the case of `CN1CCN(Cc2ccc(S(=O)(=O)N3CCC(Nc4ncc(C#N)c(NC5CCCC5)n4)CC3)cc2)CC1` [Example 22, 4-(Cyclopentylamino)-2-((1-((4-((4-methylpiperazin-1-yl)methyl)phenyl)sulfonyl)piperidin-4-yl)amino)pyrimidine-5-carbonitrile], the values for the IC50 at CDK2 and at CDK4 were 2.5 to 10 nM and 10 to 50 nM, respectively.

Turning to `Cn1cc(S(=O)(=O)N2CCC(Nc3ncc(C#N)c(O[C@@H]4CCC[C@H]4O)n3)CC2)cn1` (single isomer, unassigned) [Compound 67], the IC50 lay within 2.5 to 10 nM on CDK2 and 10 to 50 nM on CDK4.

For the molecule `Cn1cc(S(=O)(=O)N2CCC(Nc3ncc(C#N)c(O[C@@H]4CC[C@@H](O)C4)n3)CC2)cn1` (single isomer, unassigned) [Compound 57], the IC50 lay within 2.5 to 10 nM on CDK2 and 10 to 50 nM at CDK4.

For the molecule `CO[C@@H]1CCC[C@H]1Nc1nc(NC2CCN(S(=O)(=O)c3cnn(C)c3)CC2)ncc1C#N` [Example 14], the IC50 on CDK2 was 10 to 50 nM; on CDK4 it was 100 to 1000 nM.

Turning to `CN1CCC(S(=O)(=O)N2CCC(Nc3ncc(C#N)c(NC4CCCC4)n3)CC2)CC1` [Compound 85], the concentration for half-maximal inhibition (IC50) at CDK2 is 2.5 to 10 nM; on CDK4, 10 to 50 nM.

Regarding `Cn1cc(S(=O)(=O)N2CCC(Nc3ncc(C#N)c(N[C@H]4CCC[C@]4(C)O)n3)CC2)cn1` (single isomer, unassigned) [Example 21], the values for the IC50 on CDK2 and at CDK4 were 2.5 to 10 nM and 10 to 50 nM, respectively.

For the molecule `O=S(=O)(c1ccc(C2=CCNCC2)cc1)N1CCC(Nc2ncc(C(F)(F)F)c(C=C3CCCC3)n2)CC1` [Compound 201], the half-maximal inhibitory concentration (IC50) was in the range of 0.5 to 2.5 nM at CDK2 and 2.5 to 10 nM on CDK4.

Consider `Cn1cc(S(=O)(=O)N2CCC(Nc3ncc(C#N)c(O[C@H]4CC[C@H](O)C4)n3)CC2)cn1` (single isomer, unassigned) [Compound 56], for which the IC50 at CDK2 fell in the range of 2.5 to 10 nM; at CDK4, 50 to 100 nM.

Take `Cn1cc(S(=O)(=O)N2CCC(Nc3ncc(C#N)c(O[C@H]4CCOC4)n3)CC2)cn1` [Compound 64]: the IC50 on CDK2 was 2.5 to 10 nM; on CDK4, 10 to 50 nM.

With `NC(=O)Cn1cc(S(=O)(=O)N2CCC(Nc3ncc(C(F)(F)F)c(O[C@H]4CCOC4)n3)CC2)cn1` [Compound 134], the results for the IC50 on CDK2 and at CDK4 were less than 0.5 nM and 10 to 50 nM, respectively.

As to `Cn1cc(S(=O)(=O)N2CCC(Nc3ncc(C#N)c(N[C@@H]4CCC[C@@]4(C)O)n3)CC2)cn1` (racemic) [Example 19], the figures for the IC50 at CDK2 and on CDK4 were 2.5 to 10 nM and 10 to 50 nM, respectively.

In the case of `Cn1cc(S(=O)(=O)N2CCC(Nc3ncc(C(F)F)c(O[C@H]4CCOC4)n3)CC2)cn1` [Compound 126], the half-maximal inhibitory concentration (IC50) at CDK2 lay in the range of 10 to 50 nM; at CDK4 it was 100 to 1000 nM.

Regarding `Cn1cc(S(=O)(=O)N2CCC(Nc3ncc(C#N)c([S+]([O-])C4CCCC4)n3)CC2)cn1` (stereo not drawn) [Compound 98], the IC50 at CDK2 is less than 0.5 nM; at CDK4, 10 to 50 nM.

Consider `O=S(=O)(c1cnn(C2CCOCC2)c1)N1CCC(Nc2ncc(C(F)(F)F)c(O[C@H]3CCOC3)n2)CC1` [Compound 108], for which the IC50 was in the range of 0.5 to 2.5 nM on CDK2 and 2.5 to 10 nM on CDK4.

As for `Cn1cc(S(=O)(=O)N2CCC(Nc3cc(O[C@H]4CCOC4)c(C#N)cn3)CC2)cn1` [Compound 158], the concentration for half-maximal inhibition (IC50) at CDK2 was in the range of 2.5 to 10 nM; at CDK4 it was 10 to 50 nM.
